According to ChEMBL document CHEMBL4392841, “Identification of ortho-hydroxy anilide as a novel scaffold for lysine demethylase 5 inhibitors” (Bioorg Med Chem Lett, 2019):
The source made the active and inactive calls. The calls are words filed in the database; no cut-off is given here.

Tests used:
[1] = target: T1, Lysine-specific demethylase 5A (Homo sapiens, UniProt P29375); assay: Inhibition of C-terminal FLAG-tagged human KDM5A expressed in Sf9 cells pre-incubated for 4 hrs before substrate addition and measured after 1 hr by AlphaScreen assay
[2] = target: T1, Lysine-specific demethylase 5A; assay: Inhibition of C-terminal FLAG-tagged human KDM5A expressed in Sf9 cells at 200 uM pre-incubated for 15 mins before H3(1-21)K4me3 peptide substrate addition in presence of 50 uM alpha-KG by formaldehyde dehydrogenase coupled demethylase assay
[3] = target: T2, Lysine-specific demethylase 4A (Homo sapiens) (UniProt O75164); assay: Inhibition of C-terminal FLAG-tagged human KDM4A expressed in Escherichia coli at 50 uM pre-incubated for 4 hrs before substrate addition and measured after 1 hr by AlphaScreen assay
T2 sequence (whole entry): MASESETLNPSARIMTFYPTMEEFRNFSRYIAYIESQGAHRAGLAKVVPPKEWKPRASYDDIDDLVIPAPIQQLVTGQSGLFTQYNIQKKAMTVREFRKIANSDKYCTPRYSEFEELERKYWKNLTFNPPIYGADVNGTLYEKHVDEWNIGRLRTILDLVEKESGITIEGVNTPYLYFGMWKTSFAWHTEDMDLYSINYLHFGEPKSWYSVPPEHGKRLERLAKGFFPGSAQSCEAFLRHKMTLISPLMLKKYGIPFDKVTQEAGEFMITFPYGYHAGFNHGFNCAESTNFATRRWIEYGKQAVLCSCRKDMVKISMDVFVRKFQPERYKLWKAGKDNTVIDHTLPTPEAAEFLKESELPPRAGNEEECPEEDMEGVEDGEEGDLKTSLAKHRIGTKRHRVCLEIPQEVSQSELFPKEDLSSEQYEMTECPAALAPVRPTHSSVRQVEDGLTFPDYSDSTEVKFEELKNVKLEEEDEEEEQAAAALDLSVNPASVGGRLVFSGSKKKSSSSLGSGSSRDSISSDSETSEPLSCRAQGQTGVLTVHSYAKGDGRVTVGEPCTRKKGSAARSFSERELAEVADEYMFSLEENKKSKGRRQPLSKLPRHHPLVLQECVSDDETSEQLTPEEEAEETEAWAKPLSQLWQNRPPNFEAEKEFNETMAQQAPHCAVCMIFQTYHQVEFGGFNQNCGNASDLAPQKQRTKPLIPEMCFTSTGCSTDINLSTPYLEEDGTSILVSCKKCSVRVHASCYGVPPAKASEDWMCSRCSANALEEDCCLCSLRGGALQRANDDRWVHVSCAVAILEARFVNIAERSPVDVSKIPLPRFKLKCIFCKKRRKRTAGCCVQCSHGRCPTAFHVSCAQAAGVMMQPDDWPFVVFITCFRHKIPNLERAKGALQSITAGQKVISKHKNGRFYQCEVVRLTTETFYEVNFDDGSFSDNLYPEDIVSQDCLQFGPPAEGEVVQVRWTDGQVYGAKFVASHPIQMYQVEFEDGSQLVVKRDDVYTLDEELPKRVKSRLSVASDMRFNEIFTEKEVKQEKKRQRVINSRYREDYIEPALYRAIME

[4] = target: Lysine-specific demethylase 6B (Homo sapiens) (UniProt O15054); assay: Inhibition of C-terminal FLAG-tagged human KDM6B expressed in expressed in Sf9 cells at 50 uM pre-incubated for 4 hrs before substrate addition and measured after 1 hr by AlphaScreen assay
A549 = assay: Cytotoxicity in human A549 cells assessed as reduction in cell viability at 250 uM; assay type: functional, cell-based
[5] = target: T1, Lysine-specific demethylase 5A; assay: Inhibition of C-terminal FLAG-tagged human KDM5A expressed in Sf9 cells at 50 uM pre-incubated for 4 hrs before substrate addition and measured after 1 hr by AlphaScreen assay
[6] = target: T1, Lysine-specific demethylase 5A; assay: Inhibition of KDM5A in human A549 cells assessed as H3K4me3/H3 ratio level at 100 uM levels incubated for 24 hrs by Western blot analysis relative to control; assay type: cell-based
[7] = target: T1, Lysine-specific demethylase 5A; assay: Inhibition of C-terminal FLAG-tagged human KDM5A expressed in Sf9 cells at 200 uM pre-incubated for 15 mins before H3(1-21)K4me3 peptide substrate addition in presence of 1000 uM alpha-KG by formaldehyde dehydrogenase coupled demethylase assay
[8] = target: Histone deacetylase 1 (Homo sapiens) (UniProt Q13547); assay: Inhibition of C-terminal GST-tagged full-length human HDAC1 expressed in Sf9 cells at 100 uM pre-incubated for 10 mins before substrate addition and measured after 20 mins by fluorescence assay
[9] = target: T1, Lysine-specific demethylase 5A; assay: Inhibition of KDM5A in human A549 cells assessed as H3K4me3/H3 ratio level at 50 uM levels incubated for 24 hrs by Western blot analysis relative to control; assay type: cell-based
[10] = target: T1, Lysine-specific demethylase 5A; assay: Inhibition of KDM5A in human A549 cells assessed as H3K4me3/H3 ratio level at 250 uM levels incubated for 24 hrs by Western blot analysis relative to control; assay type: cell-based
[11] = target: T1, Lysine-specific demethylase 5A; assay: Inhibition of KDM5A in human A549 cells assessed as increase in H3K4me3/H3 ratio level at 50 to 250 uM levels incubated for 24 hrs by Western blot analysis relative to control; assay type: cell-based
[12] = target: T1, Lysine-specific demethylase 5A; assay: Inhibition of KDM5A in human A549 cells assessed as increase in H3K4me3/H3 levels incubated for 24 hrs by Western blot analysis; assay type: cell-based
[13] = target: T3, Lysine-specific demethylase 4A (Homo sapiens, UniProt O75164); assay: Inhibition of C-terminal FLAG-tagged human KDM4A expressed in Escherichia coli pre-incubated for 4 hrs before substrate addition and measured after 1 hr by AlphaScreen assay
T3 sequence (O75164 whole entry): T2 sequence (whole entry)

T1 sequence (P29375 whole entry): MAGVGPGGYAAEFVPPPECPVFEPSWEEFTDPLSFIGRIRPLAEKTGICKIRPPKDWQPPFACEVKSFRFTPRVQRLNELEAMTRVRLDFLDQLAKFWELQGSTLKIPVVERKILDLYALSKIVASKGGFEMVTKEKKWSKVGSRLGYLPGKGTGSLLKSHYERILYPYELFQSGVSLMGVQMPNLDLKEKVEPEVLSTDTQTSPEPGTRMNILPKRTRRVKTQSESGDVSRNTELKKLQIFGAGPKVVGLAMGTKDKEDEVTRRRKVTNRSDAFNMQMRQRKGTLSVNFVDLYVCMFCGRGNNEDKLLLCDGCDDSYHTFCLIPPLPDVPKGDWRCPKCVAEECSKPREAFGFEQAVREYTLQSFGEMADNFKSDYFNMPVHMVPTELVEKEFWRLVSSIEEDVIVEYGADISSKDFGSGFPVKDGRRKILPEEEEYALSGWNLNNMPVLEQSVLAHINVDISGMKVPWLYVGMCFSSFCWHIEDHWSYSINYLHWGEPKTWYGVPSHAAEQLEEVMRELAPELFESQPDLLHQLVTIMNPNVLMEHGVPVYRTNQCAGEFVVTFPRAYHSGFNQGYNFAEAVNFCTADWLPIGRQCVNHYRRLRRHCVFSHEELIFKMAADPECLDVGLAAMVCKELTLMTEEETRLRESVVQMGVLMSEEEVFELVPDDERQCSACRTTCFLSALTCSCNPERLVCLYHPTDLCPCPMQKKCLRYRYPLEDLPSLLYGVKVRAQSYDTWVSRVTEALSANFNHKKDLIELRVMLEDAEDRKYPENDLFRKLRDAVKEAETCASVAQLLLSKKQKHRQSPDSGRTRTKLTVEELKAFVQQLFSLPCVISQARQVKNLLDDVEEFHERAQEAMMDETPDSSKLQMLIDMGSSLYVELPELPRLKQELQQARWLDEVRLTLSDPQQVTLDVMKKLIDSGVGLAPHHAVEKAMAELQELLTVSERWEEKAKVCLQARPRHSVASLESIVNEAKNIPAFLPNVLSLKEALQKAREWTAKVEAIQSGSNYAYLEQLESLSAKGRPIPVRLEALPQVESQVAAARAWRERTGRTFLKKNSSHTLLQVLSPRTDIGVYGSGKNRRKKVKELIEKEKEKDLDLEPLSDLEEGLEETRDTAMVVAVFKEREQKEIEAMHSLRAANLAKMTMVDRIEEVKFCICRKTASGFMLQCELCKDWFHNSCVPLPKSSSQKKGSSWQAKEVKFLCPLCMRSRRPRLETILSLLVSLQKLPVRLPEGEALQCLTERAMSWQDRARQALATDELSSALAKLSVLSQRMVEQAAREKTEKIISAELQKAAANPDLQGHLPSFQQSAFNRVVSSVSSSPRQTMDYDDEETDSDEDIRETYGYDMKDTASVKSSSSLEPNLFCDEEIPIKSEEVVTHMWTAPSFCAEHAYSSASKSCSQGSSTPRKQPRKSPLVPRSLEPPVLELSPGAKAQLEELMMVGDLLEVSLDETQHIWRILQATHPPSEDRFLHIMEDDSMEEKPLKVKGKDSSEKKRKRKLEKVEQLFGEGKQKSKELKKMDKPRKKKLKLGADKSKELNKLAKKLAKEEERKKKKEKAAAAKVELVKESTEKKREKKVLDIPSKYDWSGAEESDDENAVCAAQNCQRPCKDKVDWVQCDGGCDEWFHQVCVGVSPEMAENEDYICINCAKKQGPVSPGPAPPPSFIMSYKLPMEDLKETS
Lysine-specific demethylase 6B (Homo sapiens), sequence (O15054 whole entry): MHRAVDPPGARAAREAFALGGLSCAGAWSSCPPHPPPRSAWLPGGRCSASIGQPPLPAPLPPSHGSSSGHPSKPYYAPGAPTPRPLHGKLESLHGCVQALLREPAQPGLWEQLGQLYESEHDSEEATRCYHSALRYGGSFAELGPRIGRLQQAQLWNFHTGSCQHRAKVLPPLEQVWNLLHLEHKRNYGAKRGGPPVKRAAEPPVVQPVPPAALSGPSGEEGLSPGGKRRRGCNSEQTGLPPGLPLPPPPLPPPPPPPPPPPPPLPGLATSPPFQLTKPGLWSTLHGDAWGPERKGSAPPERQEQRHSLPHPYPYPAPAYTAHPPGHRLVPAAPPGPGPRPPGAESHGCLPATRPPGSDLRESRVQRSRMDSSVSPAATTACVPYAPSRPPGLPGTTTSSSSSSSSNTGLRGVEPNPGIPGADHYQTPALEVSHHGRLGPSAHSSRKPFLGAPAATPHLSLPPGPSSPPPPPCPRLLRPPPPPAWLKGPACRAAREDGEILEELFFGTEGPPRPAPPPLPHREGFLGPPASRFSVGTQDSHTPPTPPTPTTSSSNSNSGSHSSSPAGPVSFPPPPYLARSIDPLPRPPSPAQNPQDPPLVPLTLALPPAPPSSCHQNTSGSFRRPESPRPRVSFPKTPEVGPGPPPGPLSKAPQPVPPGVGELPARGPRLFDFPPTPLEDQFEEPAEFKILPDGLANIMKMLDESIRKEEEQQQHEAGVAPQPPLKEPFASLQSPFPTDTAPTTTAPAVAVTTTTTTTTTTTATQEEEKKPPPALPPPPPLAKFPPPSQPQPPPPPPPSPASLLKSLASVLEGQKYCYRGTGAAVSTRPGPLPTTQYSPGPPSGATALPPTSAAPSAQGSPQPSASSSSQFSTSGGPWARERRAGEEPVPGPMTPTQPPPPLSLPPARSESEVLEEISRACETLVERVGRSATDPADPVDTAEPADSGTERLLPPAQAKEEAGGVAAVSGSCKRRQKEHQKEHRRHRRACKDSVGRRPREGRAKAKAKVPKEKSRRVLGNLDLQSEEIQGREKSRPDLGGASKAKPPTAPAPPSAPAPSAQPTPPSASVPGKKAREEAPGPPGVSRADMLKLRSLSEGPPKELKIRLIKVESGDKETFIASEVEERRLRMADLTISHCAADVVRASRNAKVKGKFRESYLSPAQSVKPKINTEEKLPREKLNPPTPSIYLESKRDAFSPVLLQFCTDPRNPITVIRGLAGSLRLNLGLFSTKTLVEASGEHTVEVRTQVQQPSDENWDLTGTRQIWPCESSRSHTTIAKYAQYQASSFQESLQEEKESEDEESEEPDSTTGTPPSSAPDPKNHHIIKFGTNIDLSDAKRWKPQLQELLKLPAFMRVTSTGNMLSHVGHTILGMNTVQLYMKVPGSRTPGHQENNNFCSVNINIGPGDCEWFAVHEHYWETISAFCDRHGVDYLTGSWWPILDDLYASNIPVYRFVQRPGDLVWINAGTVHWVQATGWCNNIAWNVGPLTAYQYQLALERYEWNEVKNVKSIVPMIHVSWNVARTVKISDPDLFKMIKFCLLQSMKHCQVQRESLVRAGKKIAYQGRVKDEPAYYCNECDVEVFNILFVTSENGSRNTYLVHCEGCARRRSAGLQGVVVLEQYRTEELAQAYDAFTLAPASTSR
Histone deacetylase 1 (Homo sapiens), sequence (Q13547 whole entry): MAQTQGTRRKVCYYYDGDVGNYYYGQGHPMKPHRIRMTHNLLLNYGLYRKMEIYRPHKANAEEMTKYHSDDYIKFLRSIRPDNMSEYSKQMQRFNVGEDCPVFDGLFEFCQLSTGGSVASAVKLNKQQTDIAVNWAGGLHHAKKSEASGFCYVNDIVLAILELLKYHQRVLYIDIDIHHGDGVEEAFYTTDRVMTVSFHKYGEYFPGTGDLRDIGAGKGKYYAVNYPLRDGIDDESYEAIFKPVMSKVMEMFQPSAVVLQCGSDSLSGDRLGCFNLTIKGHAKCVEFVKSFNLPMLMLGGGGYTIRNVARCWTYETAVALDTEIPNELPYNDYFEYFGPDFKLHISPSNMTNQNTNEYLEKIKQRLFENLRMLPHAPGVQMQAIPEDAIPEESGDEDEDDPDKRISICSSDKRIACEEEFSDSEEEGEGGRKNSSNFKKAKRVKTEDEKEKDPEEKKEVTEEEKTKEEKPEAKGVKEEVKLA

In the case of `CCCCCN(C)CCCCC(=O)N(O)CCC(=O)O`, the IC50 [1] is reported as 0.079 µM.

For `O=CNc1ccc(C(=O)O)cc1O`, the inhibition [2] was 97%, the IC50 [1] was 46 µM and the inhibition [3] was 20%. The inhibition [4] was 38%, the Activity (A549) was “inactive” and the inhibition [5] was 87%. It also gave a Ratio [6] of 1.01, an inhibition [7] of 44% and an inhibition [8] of 6%. The Ratio [9] was 0.93 and the Ratio [10] was 0.96.

For `CC(=O)Nc1cc(C(=O)O)ccc1O`, the inhibition [5] was “Active”.

In the case of `O=CNc1cc(C(=O)O)ccc1O`, the IC50 [1] is reported as 48 µM and the inhibition [5] is reported as 73%.

For `COC(=O)c1ccc(NC=O)c(O)c1`, the fold change (FC) [11] was 1.7 to 2.2, the Activity (A549) was “inactive” and the Ratio [6] was 1.72. The Ratio [9] was 1.31, the Ratio [10] was 2.15 and the inhibition [12] was “Dose-dependent effect”.

`CC(=O)Nc1ccc(C(=O)O)cc1N` was tested, and the inhibition [5] was “inactive”.

Work on `O=C(O)CNC(=O)C(=O)O` [N-OXALYLGLYCINE] yielded an IC50 [13] of 85 µM.

`CC(=O)Nc1ccc(C(=O)O)cc1O` was tested, and the inhibition [5] was “Active”.
